Reference: PMC10800876, “Evaluation of proline-rich antimicrobial peptides as potential lead structures for novel antimycotics against Cryptococcus neoformans” (Frontiers in Microbiology, 2024)
Converted amounts (≈) assume the structure as drawn. One block for each compound: values may come before it. Non-standard residues stand in square brackets, D forms with d. Residues, ends and D or L forms follow the SMILES beside them. Ac6c = NC1(C(=O)O)CCCCC1

What was measured:
C. neoformans 1841 [1] = assay: Scanning electron microscopy, damaged cells; format: cell-based, Cryptococcus neoformans; conditions: 200 μmol/L, 10^8 CFU/mL, 3 h, 30°C
Experimental: Overnight cultures of C. neoformans 1841 were prepared as described and adjusted with 50% SAB in phosphate buffer to reach 1 × 10^8 CFU/mL. Aqueous peptide solutions (20 μL) were added to the cell suspension (80 μL) to give a final peptide concentration of 200 μmol/L. Samples were incubated at 30°C on an orbital shaker (750 rpm) for 3 h. Samples were centrifuged (2,000 × g, 10 min, 4°C, Microfuge 22R, Beckmann Coulter), cell pellets were washed with ice-cold phosphate-buffered saline (PBS, 100 μL) and centrifuged again. Cell pellets were re-suspended in PBS (25 μL) and adhered overnight in humid atmosphere to glass coverslips (Borosilicate Glass, VWR International GmbH) previously coated with 0.001% poly-L-lysine (in case of Critical-Point Drying). Cells were fixed (2% glutaraldehyde, 2% paraformaldehyde, in PBS) for 60 min and afterwards stained with 1% OsO4 in PBS for 60 min. The cells were gradually dehydrated in ethanol series (30, 50, 70, 85, 90, 96% (once), and 100% (thrice) for 10 min. The coverslips were critical-point-dried (Baltec CPD 030, BAL-TEC GmbH, Schalksmühle, Germany) or air-dried after incubation with HMDS (3 min, RT) and sputter coated with 20 nm gold/palladium (Baltec MED 020, BAL-TEC GmbH). Cells were visualized using the SEM secondary electron detector (Zeiss EVO LS 15 LaB6, Carl Zeiss Microscopy Deutschland GmbH).
GraphPad Prism 10.0.3 software was used for statistical analysis of the recorded data. A Dunnett’s multiple comparisons test (Ordinary-one-way ANOVA) was performed.

[2] = system: C. neoformans H99 (serotype A); conditions: for MIC (μmol/L) H99 24 h: H99 (serotype A, 24 h)
[3] = system: C. neoformans KN99α (serotype A, mating type MATα); conditions: for MIC (μmol/L) KN99α 24 h: KN99α (serotype A, mating type MATα, 24 h); for MIC (μmol/L) KN99α 48 h: KN99α (serotype A, mating type MATα, 48 h)
[4] = system: C. neoformans 1841 (serotype D); conditions: for MIC (μmol/L) 1841 24 h: 1841 (serotype D, 24 h, pH 7.5); for MIC (μmol/L) 1841 48 h: 1841 (serotype D, 48 h, pH 7.5)
[5] = system: C. neoformans strains 1841, H99, and KN99α; assay: Broth microdilution assay (MIC); format: cell-based, Cryptococcus neoformans
[6] = system: C. neoformans strains 1841, H99, and KN99α; assay: Antifungal activity assay (CFU); format: cell-based, Cryptococcus neoformans; conditions: only small colonies appearing after more than 24 h
C. neoformans 1841 [7] = assay: Antifungal activity assay (CFU on SAB agar); format: cell-based, Cryptococcus neoformans; conditions: treatment 3 h, 30 °C, mean ± SD, n = 4; for cell count C. neoformans 1841, 24 h: CFU counted after 24 h; for cell count C. neoformans 1841, 48 h: CFU counted after 48 h
C. neoformans KN99α = assay: Antifungal activity assay (CFU on SAB agar); format: cell-based, Cryptococcus neoformans; conditions: treatment 3 h, 30 °C, mean ± SD, n = 4; for cell count C. neoformans KN99α, 24 h: CFU counted after 24 h; for cell count C. neoformans KN99α, 48 h: CFU counted after 48 h
C. neoformans H99 = assay: Antifungal activity assay (CFU on SAB agar); format: cell-based, Cryptococcus neoformans; conditions: treatment 3 h, 30 °C, mean ± SD, n = 4; for cell count C. neoformans H99, 24 h: CFU counted after 24 h; for cell count C. neoformans H99, 48 h: CFU counted after 48 h

MIC (μmol/L) H99 24 h [2]: 26 µmol/L (≈ 64.4 µg/mL) | MIC (μmol/L) H99 48 h ([2]; H99 (serotype A, 48 h)): 52 µmol/L (≈ 129 µg/mL) | MIC (μmol/L) KN99α 24 h [3]: 26 µmol/L (≈ 64.4 µg/mL) | MIC (μmol/L) KN99α 48 h [3]: 52 µmol/L (≈ 129 µg/mL) | MIC (mg/L) 1841 24 h ([4]; 1841 (serotype D, 24 h)): 32 to 64 mg/L | MIC (μmol/L) 1841 24 h [4]: 13 to 26 µmol/L | MIC (mg/L) 1841 48 h ([4]; 1841 (serotype D, 48 h)): 64 to 128 mg/L | MIC (μmol/L) 1841 48 h [4]: 26 to 52 µmol/L
SMILES: CC(C)C[C@H](NC(=O)[C@@H]1CCCN1C(=O)[C@@H]1CCCN1C(=O)[C@H](CCCNC(=N)N)NC(=O)[C@H](Cc1ccc(O)cc1)NC(=O)[C@@H]1CCCN1C(=O)[C@@H]1CCCN1C(=O)[C@H](CCCNC(=N)N)NC(=O)C1(NC(=O)[C@H](CCCNC(=N)N)NC(=O)[C@@H]2CCCN2C(=O)[C@H](CCCCN)NC(=O)[C@@H]2CCCN2C(=O)[C@H](CCCNC(=N)N)NC(=O)[C@@H]2CCCN2C(=O)[C@H](CCCNC(=N)N)NC(=O)[C@@H](NC(=O)[C@H](CCCNC(=N)N)NC(=O)[C@@H](N)CC(=O)O)C(C)C)CCCCC1)C(=O)N1CCC[C@H]1C(N)=O [Chex1Arg20 scr] (H-DRVRPRPKPR[Ac6c]RPPYRPPLP-NH2; N-terminus assumed)
damaged cells in SEM (C. neoformans 1841 [1]): slightly lower percentage of damaged cells than Chex1Arg20

SMILES: CC(C)C[C@H](NC(=O)[C@H](Cc1ccc(O)cc1)NC(=O)[C@@H]1CCCN1C(=O)[C@H](CCCNC(=N)N)NC(=O)[C@@H]1CCCN1C(=O)[C@H](CCCCN)NC(=O)[C@H](CC(=O)O)NC(=O)[C@@H]1CCCN1C(=O)[C@H](CCCNC(=N)N)NC(=O)C1(N)CCCCC1)C(=O)N1CCC[C@H]1C(=O)N[C@@H](CCCNC(=N)N)C(=O)N1CCC[C@H]1C(=O)N[C@@H](CCCNC(=N)N)C(=O)N1CCC[C@H]1C(=O)N1CCC[C@H]1C(=O)N[C@@H](CCCNC(=N)N)C(=O)N1CCC[C@H]1C(=O)N[C@H](C(=O)N[C@@H](CCCNC(=N)N)C(N)=O)C(C)C [Chex1Arg20] (H-[Ac6c]RPDKPRPYLPRPRPPRPVR-NH2; N-terminus assumed)
damaged cells in SEM (C. neoformans 1841 [1]): only a small portion showed deep indentations | MIC [5]: 4 to 16 µg/mL | colony formation on agar [6]: delayed colony formation | MIC (μmol/L) H99 24 h [2]: 1.6 µmol/L (≈ 3.96 µg/mL) | MIC (mg/L) H99 48 h ([2]; H99 (serotype A, 48 h)): 4 to 8 mg/L | MIC (μmol/L) H99 48 h ([2]; H99 (serotype A, 48 h)): 1.6 to 3.2 µmol/L | cell count C. neoformans 1841, 24 h (C. neoformans 1841 [7]; 0.25 µmol/L): 2.7 ± 0.0 x 10^4 CFU/mL | cell count C. neoformans 1841, 48 h (C. neoformans 1841 [7]; 0.25 µmol/L): 2.8 ± 0.1 x 10^4 CFU/mL | cell count C. neoformans 1841, 24 h (C. neoformans 1841 [7]; 2.5 µmol/L): 0.0 ± 0.0 x 10^4 CFU/mL | cell count C. neoformans 1841, 48 h (C. neoformans 1841 [7]; 2.5 µmol/L): 0.5 ± 0.1 x 10^4 CFU/mL | cell count C. neoformans 1841, 24 h (C. neoformans 1841 [7]; 25 µmol/L): 0.0 ± 0.0 x 10^4 CFU/mL | cell count C. neoformans 1841, 48 h (C. neoformans 1841 [7]; 25 µmol/L): 0.0 ± 0.0 x 10^4 CFU/mL | MIC (μmol/L) KN99α 24 h [3]: 1.6 µmol/L (≈ 3.96 µg/mL) | MIC (μmol/L) KN99α 48 h [3]: 3.2 µmol/L (≈ 7.92 µg/mL) | cell count C. neoformans KN99α, 24 h (C. neoformans KN99α; 0.25 µmol/L): 2.7 ± 0.4 x 10^4 CFU/mL | cell count C. neoformans KN99α, 48 h (C. neoformans KN99α; 0.25 µmol/L): 2.7 ± 0.4 x 10^4 CFU/mL | cell count C. neoformans KN99α, 24 h (C. neoformans KN99α; 2.5 µmol/L): 1.0 ± 0.6 x 10^4 CFU/mL | cell count C. neoformans KN99α, 48 h (C. neoformans KN99α; 2.5 µmol/L): 1.8 ± 1.2 x 10^4 CFU/mL | cell count C. neoformans KN99α, 24 h (C. neoformans KN99α; 25 µmol/L): 0.5 ± 0.8 x 10^4 CFU/mL | cell count C. neoformans KN99α, 48 h (C. neoformans KN99α; 25 µmol/L): 0.8 ± 0.9 x 10^4 CFU/mL | MIC (μmol/L) 1841 24 h [4]: 1.6 µmol/L (≈ 3.96 µg/mL) | MIC (μmol/L) 1841 48 h [4]: 3.2 µmol/L (≈ 7.92 µg/mL) | cell count C. neoformans H99, 24 h (C. neoformans H99; 0.25 µmol/L): 1.4 ± 0.7 x 10^4 CFU/mL | cell count C. neoformans H99, 48 h (C. neoformans H99; 0.25 µmol/L): 1.6 ± 0.8 x 10^4 CFU/mL | cell count C. neoformans H99, 24 h (C. neoformans H99; 2.5 µmol/L): 1.5 ± 1.0 x 10^4 CFU/mL | cell count C. neoformans H99, 48 h (C. neoformans H99; 2.5 µmol/L): 2.5 ± 0.8 x 10^4 CFU/mL | cell count C. neoformans H99, 24 h (C. neoformans H99; 25 µmol/L): 0.0 ± 0.0 x 10^4 CFU/mL | cell count C. neoformans H99, 48 h (C. neoformans H99; 25 µmol/L): 0.8 ± 0.2 x 10^4 CFU/mL
